The source of these data is ChEMBL document CHEMBL1275461, “Early bactericidal activity and pharmacokinetics of the diarylquinoline TMC207 in treatment of pulmonary tuberculosis” (Antimicrob Agents Chemother, 2008).

Values after ≈ are worked out from the molar mass of the structure shown. Active and inactive are the calls of the source.

Assay [1] deals with Mycobacterium tuberculosis. The experiment in a line: Bactericidal activity against Mycobacterium tuberculosis selected on 10 times compound MIC measured after 6 days. Format: functional, organism-based.
The subject of assay [2] is Mycobacterium tuberculosis. The experiment in a line: Bactericidal activity against Mycobacterium tuberculosis selected on 100 times compound MIC measured after 6 days. The class given is functional, organism-based.
Assay [3] concerns Mycobacterium tuberculosis. The experiment in a line: Antimicrobial activity against drug-resistant Mycobacterium tuberculosis. The class given is functional.

What is called MIC is the smallest concentration in the dilution series that meets the test's criterion for growth inhibition. Lower therefore signals inhibition by little substance. As to `COc1nc2ccc(Br)cc2cc1[C@@H](c1ccccc1)[C@@](O)(CCN(C)C)c1cccc2ccccc12` [BEDAQUILINE], the outcome in assay [1] and in assay [2] was Active. For the same compound, in assay [3], the MIC stood at 0.03 µg/mL (≈ 0.054 µM).
